Bounds are passed on as bounds.

For experiment [1], the target named is CDK9/cyclin T1 (Homo sapiens) (UniProt O60563+P50750). As to the kind of experiment: Inhibition of CDK9/cyclin T (unknown origin) using […] at 1 uM incubated for 40 mins in presence of ATP by Kinase-Glo assay relative to control. It is filed as protein-complex assay. (In Kinase-Glo more light means more ATP remaining.)
In another experiment the test system is HCT-116. As to the kind of experiment: Cytotoxicity against human HCT-116 cells assessed as cell growth inhibition incubated for 48 hrs by MTT assay. It is filed as functional, cell-based. Conditions: HCT-116, 48 h.
The target of experiment [2] is Cyclin-dependent kinase 2/cyclin A (Homo sapiens) (UniProt P24941+P20248+P78396). As to the kind of experiment: Inhibition of CDK2/cyclin A (unknown origin) using […] at 1 uM incubated for 40 mins in presence of ATP by Kinase-Glo assay relative to control. The class given is protein-complex assay.
For experiment [3], the target named is Cyclin-dependent kinase 2/cyclin A (Homo sapiens, UniProt P24941). As to the kind of experiment: Inhibition of CDK2/cyclin A (unknown origin) using […] incubated for 40 mins in presence of ATP by Kinase-Glo assay. It is filed as protein-complex assay.
Experiment [4] is described as follows: Inhibition of CDK9/cyclin T (unknown origin) using […] incubated for 40 mins in presence of ATP by Kinase-Glo assay. On the set-up: species or system Homo sapiens.

For `CCOC(=O)c1cnc(Nc2nc(Nc3ccc(S(N)(=O)=O)cc3)ncc2F)s1`, the inhibition in experiment [1] was 40%; in experiment [2] it was 79%. For the same compound, the IC50 with HCT-116 was determined as 7500 nM.
Regarding `CC(C)c1ccc(-c2csc(Nc3nc(Nc4ccc(S(N)(=O)=O)cc4)ncc3F)n2)cc1`, the values for the inhibition in experiment [1] and in experiment [2] were 27% and 65%, respectively. For the same compound, the half-inhibitory concentration (IC50) in the experiment on HCT-116 was > 10000 nM.
As to `NS(=O)(=O)c1ccc(Nc2nccc(Nc3nccs3)n2)cc1`, the half-maximal inhibitory concentration (IC50) in experiment [3] turned out to be 52 nM; in experiment [4] it was 124 nM; in the experiment with HCT-116, 1380 nM.
With `COc1cnc(Nc2ccc(S(N)(=O)=O)cc2)nc1Nc1ncc(C)s1`, the inhibition worked out at 75% in experiment [1] and 72% in experiment [2]. Besides, the IC50 with HCT-116 turned out to be 9760 nM.
With `Cc1cnc(Nc2nc(Nc3ccc(S(N)(=O)=O)cc3)ncc2F)s1`, the inhibition in experiment [1] is 66%. Further, the IC50 stood at 12 nM in experiment [3] and 910 nM with HCT-116.
Turning to `NS(=O)(=O)c1ccc(Nc2nccc(Nc3nc(-c4ccc(F)cc4)cs3)n2)cc1`, the inhibition in experiment [1] amounted to 65%. Also, the half-maximal inhibitory concentration (IC50) amounted to 110 nM in experiment [3] and 4400 nM in the experiment on HCT-116.
Regarding `NS(=O)(=O)c1ccc(Nc2ncc(F)c(Nc3nccs3)n2)cc1`, the IC50 turned out to be 10 nM in experiment [3], 217 nM in experiment [4] and 4040 nM in the experiment with HCT-116.
The matching figures for `Cc1cnc(Nc2ccc(S(N)(=O)=O)cc2)nc1Nc1nc(-c2ccc(F)cc2)cs1`: 32 nM, 89 nM and 6050 nM.
In the case of `Cc1cnc(Nc2ccc(S(N)(=O)=O)cc2)nc1Nc1nc(-c2ccc(C(C)C)cc2)cs1`, the inhibition in experiment [1] was 83%; in experiment [2], 84%. In addition, the concentration for half-maximal inhibition (IC50) in the experiment with HCT-116 came to 3060 nM.
Regarding `Fc1ccc(Nc2nccc(Nc3nccs3)n2)cc1`, the inhibition came out at 6% in experiment [1] and 9% in experiment [2]. For the same compound, in the experiment with HCT-116, the IC50 is > 10000 nM.
Take `NS(=O)(=O)c1ccc(Nc2ncc(F)c(Nc3nc(-c4ccc(F)cc4)cs3)n2)cc1`: in experiment [1], the inhibition is 41%. Also, the IC50 in experiment [3] turned out to be 23 nM; in the experiment with HCT-116, 5260 nM.
Consider `NS(=O)(=O)c1ccc(Nc2ncc(F)c(Nc3nc(C4CC4)cs3)n2)cc1`, for which the inhibition in experiment [1] was determined as 51%. In addition, the 50% inhibitory concentration (IC50) in experiment [3] stood at 11 nM; in the experiment with HCT-116, 7850 nM.
The corresponding values for `COCCNS(=O)(=O)c1ccc(Nc2ncc(C)c(Nc3nccs3)n2)cc1` are 46%, 43 nM and 7420 nM.
`Cc1cnc(Nc2ccc(S(=O)(=O)NC3CC3)cc2)nc1Nc1nccs1`: the values for the inhibition in experiment [1] and in experiment [2] were 62% and 76%, respectively. Further, the IC50 in the experiment on HCT-116 was 9620 nM.
The corresponding values for `CCOC(=O)c1cnc(Nc2nc(Nc3ccc(S(N)(=O)=O)cc3)ncc2C)s1` are 79%, 82% and 4580 nM.
The corresponding values for `Cc1csc(Nc2ccnc(Nc3ccc(S(N)(=O)=O)cc3)n2)n1` are 76%, 85% and > 10000 nM.
For `COc1cnc(Nc2ccc(S(N)(=O)=O)cc2)nc1Nc1nccs1`, the 50% inhibitory concentration (IC50) was 112 nM in experiment [3], 11 nM in experiment [4] and > 10000 nM in the experiment on HCT-116.
Consider `Cc1cnc(Nc2nc(Nc3ccc(S(N)(=O)=O)cc3)ncc2C)s1`, for which the half-inhibitory concentration (IC50) in experiment [4] was 2 nM; with HCT-116, 692 nM. Also, in experiment [2], the inhibition is 78%.
`CS(=O)(=O)c1ccc(Nc2nccc(Nc3nccs3)n2)cc1`: the IC50 in experiment [3] turned out to be 110 nM; in experiment [4] it was 470 nM; in the experiment with HCT-116, 9510 nM.
Take `COC(=O)c1sc(Nc2nc(Nc3ccc(S(N)(=O)=O)cc3)ncc2OC)nc1C`: the inhibition in experiment [1] came out at 19%; in experiment [2], 44%. For the same compound, in the experiment with HCT-116, the IC50 is > 10000 nM.
The corresponding values for `CCOC(=O)c1cnc(Nc2nc(Nc3ccc(S(N)(=O)=O)cc3)ncc2OC)s1` are 32%, 36% and > 10000 nM.
`COC(=O)c1sc(Nc2nc(Nc3ccc(S(N)(=O)=O)cc3)ncc2C)nc1C`: in experiment [1], the inhibition was found to be 84%. Further, the half-maximal inhibitory concentration (IC50) in experiment [3] was 53 nM; in the experiment on HCT-116 it was > 10000 nM.
Regarding `Cc1cnc(Nc2ccc(S(=O)(=O)NC(C)C)cc2)nc1Nc1nccs1`, the inhibition came out at 31% in experiment [1] and 81% in experiment [2]. In addition, in the experiment with HCT-116, the half-maximal inhibitory concentration (IC50) is > 10000 nM.
On to `Cc1cnc(Nc2ccc(S(=O)(=O)N3CCCCC3)cc2)nc1Nc1nccs1`, for which the inhibition in experiment [1] worked out at 4%. Further, the values for the IC50 (in experiment [3]; in the experiment with HCT-116) were 26 nM and 3050 nM, respectively.
Consider `CC(C)c1csc(Nc2ccnc(Nc3ccc(S(N)(=O)=O)cc3)n2)n1`, for which the inhibition in experiment [1] came out at 81%. Besides, the IC50 in experiment [3] was 27 nM; in the experiment on HCT-116, 7350 nM.
On to `NS(=O)(=O)c1ccc(Nc2nccc(Nc3nc(C4CC4)cs3)n2)cc1`, for which the 50% inhibitory concentration (IC50) turned out to be 16 nM in experiment [3], 46 nM in experiment [4] and 3640 nM with HCT-116.
The corresponding values for `Cc1cnc(Nc2ccc(S(C)(=O)=O)cc2)nc1Nc1nccs1` are 55 nM, 13 nM and 6090 nM.
On to `c1ccc(Nc2nccc(Nc3nccs3)n2)cc1`, for which the values for the inhibition in experiment [1] and in experiment [2] were 18% and 61%, respectively. The 50% inhibitory concentration (IC50) in the experiment with HCT-116 was > 10000 nM.
With `Cc1cnc(Nc2ccc(S(N)(=O)=O)cc2)nc1Nc1nc(C2CC2)cs1`, the IC50 in experiment [3] was 5 nM; in experiment [4], 46 nM; in the experiment on HCT-116, 6600 nM.
On to `COc1ccc(Nc2nccc(Nc3ncco3)n2)cc1`, for which the inhibition in experiment [1] was found to be 21%; in experiment [2], 60%. In the experiment with HCT-116, the half-inhibitory concentration (IC50) is > 10000 nM.
The corresponding values for `COc1ccc(Nc2nccc(Nc3cc[nH]n3)n2)cc1` are 29%, 47% and > 10000 nM.
In the case of `CC(C)c1csc(Nc2nc(Nc3ccc(S(N)(=O)=O)cc3)ncc2F)n1`, the results for the concentration for half-maximal inhibition (IC50) (in experiment [3]; in experiment [4]; with HCT-116) were 8 nM, 38 nM and 3870 nM, respectively.
On to `CNS(=O)(=O)c1ccc(Nc2ncc(C)c(Nc3nccs3)n2)cc1`, for which the inhibition in experiment [1] is 19%; in experiment [2], 85%. In the experiment with HCT-116, the IC50 was > 10000 nM.
Regarding `Cc1cnc(Nc2ccc(S(N)(=O)=O)cc2)nc1Nc1nc(C(C)C)cs1`, the figures for the IC50 (in experiment [3]; in experiment [4]; in the experiment with HCT-116) were 11 nM, 294 nM and 5820 nM, respectively.
With `Cc1cnc(Nc2ccc(S(=O)(=O)N3CCOCC3)cc2)nc1Nc1nccs1`, the inhibition in experiment [1] worked out at 7%; in experiment [2] it was 79%. In addition, the IC50 in the experiment on HCT-116 was > 10000 nM.
For the compound `NS(=O)(=O)c1ccc(Nc2nccc(Nc3ncc([N+](=O)[O-])s3)n2)cc1`, the IC50 in experiment [3] is 38 nM; in experiment [4], 14 nM; in the experiment with HCT-116, 8830 nM.
On to `CC(C)c1ccc(-c2csc(Nc3ccnc(Nc4ccc(S(N)(=O)=O)cc4)n3)n2)cc1`, for which the inhibition in experiment [1] was 63%; in experiment [2], 59%. For the same compound, the IC50 in the experiment on HCT-116 was found to be 6430 nM.
As for `Brc1ccc(Nc2nccc(Nc3nccs3)n2)cc1`, the inhibition in experiment [1] came to 15%; in experiment [2] it was 17%. For the same compound, in the experiment on HCT-116, the IC50 is 6840 nM.
As for `COc1ccc(Nc2nccc(Nc3nccs3)n2)cc1`, the concentration for half-maximal inhibition (IC50) in experiment [3] came to 910 nM; in experiment [4] it was 1840 nM; in the experiment on HCT-116, 2230 nM.
The corresponding values for `Cc1csc(Nc2nc(Nc3ccc(S(N)(=O)=O)cc3)ncc2C)n1` are 10 nM, 51 nM and 3210 nM.
For `Cc1cnc(Nc2ccnc(Nc3ccc(S(N)(=O)=O)cc3)n2)s1`, in experiment [1], the inhibition was 29%. For the same compound, the IC50 in experiment [3] was found to be 5 nM; in the experiment on HCT-116, 530 nM.
Regarding `COC(=O)c1sc(Nc2ccnc(Nc3ccc(S(N)(=O)=O)cc3)n2)nc1C`, the inhibition came out at 31% in experiment [1] and 67% in experiment [2]. Besides, the IC50 with HCT-116 was found to be 8720 nM.
The matching figures for `CCOC(=O)c1sc(Nc2nc(Nc3ccc(S(N)(=O)=O)cc3)ncc2C)nc1C`: 83%, 81% and > 10000 nM.
Take `COc1cc(Nc2nccc(Nc3nccs3)n2)cc(OC)c1OC`: the inhibition was 49% in experiment [1] and 30% in experiment [2]. Besides, the half-inhibitory concentration (IC50) in the experiment on HCT-116 is > 10000 nM.
Consider `CCOC(=O)c1sc(Nc2nc(Nc3ccc(S(N)(=O)=O)cc3)ncc2F)nc1C`, for which the inhibition in experiment [1] was 69%. In addition, the half-maximal inhibitory concentration (IC50) in experiment [3] is 470 nM; in the experiment on HCT-116 it was 9260 nM.

In general, inhibition refers to the relative decrease from the control value, in per cent. A word on the IC50: it is the concentration at which inhibition is half-maximal.
